Data reported in PubChem BioAssay AID1189 (EPA DSSTox, 2008).
The source made the active and inactive calls.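 The calls were made as follows: active = a tumor-causing dose value with its tumor site reported for any sex and species group of a rodent or other animal cancer study; inconclusive = only studies judged inadequate by the national testing program; inactive = tested in at least one study, none positive.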

Experiment: DSSTox (CPDBAS) Carcinogenic Potency Database Summary SingleCellCall Results
Conditions: animal chronic carcinogenicity bioassays, CPDB summary call
Outline: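 Literature-derived summary: each substance receives an overall carcinogenic/non-carcinogenic category drawn from long-term bioassays in rats, mice, hamsters, dogs or primates, using the most positive sex-species experiment and minimal evidence criteria.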

SMILES	outcome
CC(=O)CN(CC(O)CO)N=O (stereo not drawn)	active
CC1CO1 (stereo not drawn)	active
C#CC(C)(C)NC(=O)c1cc(Cl)cc(Cl)c1	active
O=[N+]([O-])c1ccc2c(c1)Cc1ccccc1-2	active
C[C@]12CC[C@H](O)CC1=CC[C@@H]1[C@@H]2CC[C@]2(C)C(=O)CC[C@@H]12	active
CC(=O)C(N=Nc1ccc(-c2ccc(N=NC(C(C)=O)C(=O)Nc3ccccc3)c(Cl)c2)cc1Cl)C(=O)Nc1ccccc1 (stereo not drawn)	inactive
c1ccc2sc(SSc3nc4ccccc4s3)nc2c1	inactive
CC(C)CN(N=O)C(=N)N[N+](=O)[O-]	inactive
CC(C)OC(=O)COc1ccc(Cl)cc1Cl	inactive
CC1=C(C(=O)OC(C)C)C(c2cccc([N+](=O)[O-])c2)C(C(=O)OC2CN(C(c3ccccc3)c3ccccc3)C2)=C(N)N1 (stereo not drawn)	inactive; active
O=C1c2ccccc2C(=O)N1SC(Cl)(Cl)Cl	active
Nc1cc([N+](=O)[O-])ccc1C(=O)O	inactive
S=P(N1CC1)(N1CC1)N1CC1	active
C=Cc1cccc[n+]1[O-]	inactive
CC(=O)OC[C@H]1O[C@H](O[C@]2(COC(C)=O)O[C@H](COC(=O)C(C)C)[C@@H](OC(=O)C(C)C)[C@@H]2OC(=O)C(C)C)[C@H](OC(=O)C(C)C)[C@@H](OC(=O)C(C)C)[C@@H]1OC(=O)C(C)C	inactive
Clc1ccc(C(c2ccc(Cl)cc2)C(Cl)(Cl)Cl)cc1	active
CCN(N=O)C(=O)NCCO	active
CNC(=O)O/N=C/C(C)(C)SC	inactive
Oc1c(Cl)cc(Cl)cc1Sc1cc(Cl)cc(Cl)c1O	inactive
Cc1cc(O)c2c(c1O)C(=O)C13C(=C2O)C(=O)C2C(O)C1C1C(O)C3C(=O)C3=C(O)c4c(O)cc(C)c(O)c4C(=O)C321 (stereo not drawn)	active
O=C(Nc1cccc2c(=O)cc(-c3nn[nH]n3)oc12)c1ccc(OCCCCc2ccccc2)cc1	inactive; active
Cc1[nH]cnc1CSCCN=C(NC#N)N(C)N=O	inactive; active
CN(C)CCN(Cc1ccco1)c1ccccn1	inactive; active

SMILES	outcome
CC/C=C(/CC)[N+](=O)[O-]	active
CC(=O)NNC(C)=O	inactive
[Na+]	inactive
CN(C)P(=O)(N(C)C)N(C)C	active
COc1nn(CSP(=S)(OC)OC)c(=O)s1	active
O=C1c2ccccc2C(=O)c2c(O)c(O)cc(O)c21	active
O.O.O.O.O.O.O.O.O=S(=O)([O-])[O-].O=S(=O)([O-])[O-].O=S(=O)([O-])[O-].[Cd+2].[Cd+2].[Cd+2]	inactive
NC(=S)C(N)=S	inactive
Nc1cc(Cl)cc(C(=O)O)c1Cl	active; inactive
O=C1CN=C(c2ccccc2)c2cc(Cl)ccc2N1CC1CC1	inactive
CCC(Cl)CCC(Cl)C(Cl)CC(Cl)C(Cl)C(Cl)CCl (stereo not drawn)	active
N#CS	inactive
ClC(Cl)C(Cl)Cl	active
COc1cc(/C=N/NC(=O)c2ccncc2)ccc1O	active; inactive
O=C1c2ccccc2-c2ccc3c4c(ccc1c24)-c1ccccc1C3=O	active; inactive
O=C1C=C2C(=CCOC2O)O1 (stereo not drawn)	inactive
CC[N+]([O-])=NC	active
CN(C)CCOC(C)(c1ccccc1)c1ccccn1 (stereo not drawn)	active; inactive
Cc1csc(NNC=O)n1	active
O=C1C2CC=CCC2C(=O)N1SC(Cl)(Cl)Cl (stereo not drawn)	active
C[C@@H]1CCCCN1N=O	active
OCC(CO)(CBr)CBr	active
O=Nc1ccc(Nc2ccccc2)cc1	active; inactive

SMILES	outcome
C=CCOCC1CO1 (stereo not drawn)	active
O=S(=O)(O)c1ccc(N=Nc2c(O)ccc3cc(S(=O)(=O)O)ccc23)cc1	inactive
C=O	active
N[C@@H](CCC(=O)NNc1ccc(C(=O)O)cc1)C(=O)O	active; inactive
O=P1(N(CCCl)CCCl)NCCCO1 (stereo not drawn)	active
C[C@]12CCC(=O)C=C1CC[C@@H]1[C@@H]2[C@@H](O)C[C@@]2(C)[C@H]1CC[C@]2(O)C(=O)CO	inactive
CN(N=O)C(=O)c1ccccc1	active; inactive
CC(O)c1ccccc1 (stereo not drawn)	active; inactive
O=C(CCl)c1ccccc1	inactive; active
O=NN1CC=CCC1	active
Cc1ccc(O)c(O)c1	active; inactive
CC(=O)Nc1ccc(CC(=O)O)cc1	inactive
CN(C)N=Nc1ccccc1	active
CCCCC1C(=O)N(c2ccccc2)N(c2ccccc2)C1=O	active; inactive
C/C=C1/C[C@@H](C)[C@](O)(CO)C(=O)OCC2=CCN3CC[C@@H](OC1=O)[C@@H]23	active
CCN=[N+]([O-])CC	active
O=C1NCCN1	inactive
Cc1ccc2cc3c(ccc4ccccc43)c3c2c1CC3	active; inactive
O=c1c(O)c(-c2ccc(O)cc2)oc2cc(O)cc(O)c12	inactive
CCOc1ccc(NC(C)=O)cc1	active; inactive
Brc1cc(Br)c2cccnc2c1	inactive; active
C=CC(O)c1ccc2c(c1)OCO2 (stereo not drawn)	active
Cc1c2ccccc2c(C)c2c1ccc1ccccc12	active; inactive

SMILES	outcome
FCC(F)(F)F	active
O=S(=O)([O-])[O-].O=S(=O)([O-])[O-].[Zr+4]	inactive
CC(=O)CN(C)N=O	active
CC1(C)OC(=O)NC1=O	inactive
CN(N=O)c1ncnc2nc[nH]c12	active
O=S(O)S(=O)(=O)O	inactive
C=CCN(CCO)N=O	active
NC(=S)Nc1cccc2ccccc12	inactive
CCOC(=O)N(CC)N=O	active; inactive
O=S1(=O)CCCO1	active
COc1cc(-c2ccc(N=C=O)c(OC)c2)ccc1N=C=O	active
CCN(Cc1cccc(S(=O)(=O)O)c1)c1ccc(C(=C2C=CC(=[N+](CC)Cc3cccc(S(=O)(=O)[O-])c3)C=C2)c2ccc(S(=O)(=O)O)cc2)cc1	active
Nc1ccc(N(CCO)CCO)cc1	inactive
O=C(O)c1[nH]n(-c2ccc(S(=O)(=O)O)cc2)c(=O)c1N=Nc1ccc(S(=O)(=O)O)cc1	inactive
CC1=C(/C=C/C(C)=C/C=C/C(C)=C/C(=O)O)C(C)(C)CCC1	inactive
Nc1ccc(N)c2c1C(=O)c1c(N)ccc(N)c1C2=O	active
Clc1ccc2c(c1)C(c1ccccc1)=NCc1nncn1-2	inactive; active
Nc1ccc(S(=O)(=O)c2ccc(N)cc2)cc1	active
O=[N+]([O-])c1c(Cl)c(Cl)c(Cl)c(Cl)c1Cl	active
CCCCCCCCCCC(C)c1ccc(S(=O)(=O)O)cc1 (stereo not drawn)	inactive
O=NN1CCNCC1	active; inactive
O=C1O[C@H]([C@@H](O)CO)C(O)=C1O	inactive
CC(=O)[O][Hg][c]1ccccc1	inactive

SMILES	outcome
NC(=O)Cc1cccc2ccccc12	inactive; active
CN(C)C(=S)S[Se](SC(=S)N(C)C)(SC(=S)N(C)C)SC(=S)N(C)C	inactive
Clc1cc2c(c(Cl)c1Cl)Oc1c(cc(Cl)c(Cl)c1Cl)O2	active
C=CCc1ccc2c(c1)OCO2	active
C[C@H]1CCCCN1N=O	active
S=C=NCCCc1ccccc1	inactive
NCCNc1cccc2ccccc12	inactive; active
O1[As]2O[As]3O[As]1O[As](O2)O3	inactive
C=CF	active; inactive
CCBr	active
NC1CCCCC1	inactive
CC(C)(C)NC[C@H](O)COc1cccc2c1CCCC2=O	inactive
OCC(O)CO	inactive
CCCOC(=O)c1cc(O)c(O)c(O)c1	inactive
CCSC[C@H](N)C(=O)O	inactive
CC(C)(C)c1cc(CO)cc(C(C)(C)C)c1O	inactive
Cc1ccc2c(c1N)C(=O)c1ccccc1C2=O	active
CNC(=O)c1c(N(C)N=O)ncn1C	active
CC1=C(CC(=O)O)c2cc(F)ccc2/C1=C\c1ccc(S(C)(=O)=O)cc1	inactive
S=C([S-])NCCNC(=S)[S-].[Mn+2]	active
CN(N=O)C(=O)Nc1nc2ccccc2s1	active
OCC(CO)N[C@H]1C[C@](O)(CO)[C@@H](O)[C@H](O)[C@H]1O	inactive
ClC(Cl)=C(Cl)c1c(Cl)c(Cl)c(Cl)c(Cl)c1Cl	inactive

SMILES	outcome
ClCOCCCCOCCl	inactive
O=c1ccc2ccccc2o1	active; inactive
CCCN(CCC)c1ccc(N=Nc2cc[n+]([O-])cc2)cc1	inactive
FC(F)(Cl)C(F)(Cl)Cl	inactive; active
C=CC(N)=O	active; inactive
CC1CCC(C(C)C)C(O)C1 (stereo not drawn)	inactive
CN(C)C(=S)[S][Pb][S]C(=S)N(C)C	inactive
CCOC1=C(O)C(=O)O[C@@H]1[C@@H](O)CO	inactive
OCC1CO1 (stereo not drawn)	active
NC(=S)NNS(=O)(=O)c1ccccc1	inactive
O=C1CN(/N=C/c2ccc([N+](=O)[O-])o2)C(=O)N1	active
COP(=S)(OC)SCn1nnc2ccccc2c1=O	inactive
CN1C(=O)CN=C(c2ccccc2)c2cc(Cl)ccc21	inactive
O=C1CCCO1	inactive
Oc1ccc(O)cc1	active
CCCCC/C=C\C/C=C\CCCCCCCC(=O)OC	inactive
CCCN=[N+]([O-])CCC	active
Clc1ccccc1	active; inactive
